Measured values published in patent US20110124678A1, “TREATMENT WITH ALPHA 7-SELECTIVE LIGANDS” (Targacept, Inc., priority 2007, published 2011).
Entries after “also recorded” stand apart in the source; their conditions may differ.

What was measured:
[1] = biological target: T1, human α7 nicotinic receptor (Homo sapiens, UniProt P36544); experiment: electrophysiology functional assay in Xenopus laevis oocytes; type: cell-based; details: Xenopus laevis oocytes transiently expressing human α7 nicotinic receptor
T1 construct: expressed in transfected cells; host or cells: Xenopus laevis oocytes
T1 sequence (P36544 23-502): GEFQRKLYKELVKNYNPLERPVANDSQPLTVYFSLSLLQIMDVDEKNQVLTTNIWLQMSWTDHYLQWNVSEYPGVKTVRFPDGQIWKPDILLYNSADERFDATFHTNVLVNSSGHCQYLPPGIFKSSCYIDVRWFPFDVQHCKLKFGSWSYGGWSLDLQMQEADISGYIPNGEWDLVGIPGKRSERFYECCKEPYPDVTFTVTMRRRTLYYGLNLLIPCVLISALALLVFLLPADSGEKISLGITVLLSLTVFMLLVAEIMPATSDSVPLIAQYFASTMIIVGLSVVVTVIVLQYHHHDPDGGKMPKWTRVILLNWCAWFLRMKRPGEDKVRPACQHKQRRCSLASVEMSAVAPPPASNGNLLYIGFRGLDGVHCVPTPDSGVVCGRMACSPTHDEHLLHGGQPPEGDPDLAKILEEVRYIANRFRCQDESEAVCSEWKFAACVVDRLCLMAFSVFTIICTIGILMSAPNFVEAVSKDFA

db/db mice [2] = experiment: metabolic phenotyping of obese db/db mice (PTP1B wild type or knockout) treated with α7 agonist; type: in vivo; details: for Glucose Tolerance Test (GTT): fat db/db PTP-1B WT mice; for plasma TNFα / plasma blood glucose (BG) / plasma glycosylated hemoglobin (Hb1ac) / plasma triglycerides (TG) / body mass / food consumption: fat db/db mice; for plasma triglycerides (TG): PTP-1B wild type; for body mass / food consumption: increase vs lean; for weight gain: obese db− mice, seven weeks of treatment; for food intake decrease induced by the α7 agonist / treatment-induced decrease in plasma glucose: antagonist or inhibitor given with α7 agonist; for body weight gain / weight loss induced by the α7 agonist: antagonist or inhibitor given with α7 agonist (MLA 3 mg/kg gavage; AG-490 1 mg/kg IP)
Excerpt: Body Weight Gain and Food Intake. Several protein tyrosine phosphatases (PTPases) such as PTP1B, LAR, SHP-2 and PTEN have been implicated in the development of insulin resistance.
α7 agonist on Obesity. Animal Models: Parental strains of mice used in these studies were the leptin receptor deficient db/db mice on a C57BL6 background obtained from Jackson Laboratories and PTP1B-null mice on a mixed C57BL6/Balb C background from Dr. Michel Tremblay at the Cancer Institute at McGill University in Montreal, Canada. Because obese db/db mice are infertile, mice were generated as dual heterozygotes, heterozygous for both the mutant leptin receptor and the deleted PTP1B. Dual heterozygotes were interbred, producing 1:4 obese mice and 1:4 PTP-1B null mice. In this breeding configuration 1:16 were dual KO mice. In the fourth generation, mice heterozygous for both genes were bred to PTP-1B null mice heterozygous for the mutant db allele. In this breeding configuration 1:4 mice were obese and 1:8 were dual KO mice. For reasons of parsimony, heterozygotes were preferred to wild-types over controls. Dual heterozygous littermates were used as lean controls and littermates heterozygous for db were used as lean PTP1B KO controls.
Mouse genotyping: At 3 weeks of age, DNA was obtained by tail clip. The genomic DNA from tail clip was used to screen for the presence of the mutant leptin receptor and deletion cassette of PTP-1B using the Polymerase Chain Reaction. Specific genotypes were determining by resolving PCR products with agarose gel electrophoresis. Deletion of PTP-1B was verified by Western analysis using an anti-PTP-1B antibody from Upstate Biotechnology.
In selected cohorts, the α7 antagonist MLA was also given via gavage, concurrently, at 3 mg/kg daily. The JAK2 kinase inhibitor (AG-490) was administered intraperitoneally (IP) at 1 mg/kg daily. Fasting glucose was measured once a week after food withdrawal, with a Precision XL glucometer using tail vein bleeding. HbA1c levels were also measured from these samples with the A1C kit from Metrika, Inc. To assess glucose tolerance, the mice were anesthetized with 2% isoflurane and the left carotid artery and jugular vein cannulated after an overnight fast. A 10 mg bolus of glucose was injected intravenously (iv) via the jugular vein and blood glucose measured every 5 minutes for 40 minutes in a drop of blood from the carotid line. For measurements of blood plasma analytes, a separate group of fasted mice were anesthetized by isoflurane in a rapid induction chamber and swiftly decapitated. Blood was collected in heparin and rapidly centrifuged at 4° C. to remove cells and to obtain plasma, and the samples were frozen for later analyses. Plasma TNF-α concentrations were determined using ELISA assay kits from eBioscience and plasma triglyceride levels were determined using the L-Type TG H test (Wako Diagnostics), an in vitro assay for the quantitative determination of triglycerides in serum or plasma. All data are expressed as mean and SEM. Differences among all groups were compared by One Way ANOVA.

db/db mice [3] = experiment: simvastatin and Compound A in db/db mice, metabolic phenotyping; type: in vivo; details: fat db/db mice, statin study
Procedure: Animal Models and Metabolic Phenotyping: […] Growth rates of mice were generated by measuring body weight twice weekly for 10 weeks. Daily food intake was measured in mice metabolic cages obtained from Fisher. To assess glucose tolerance, mice were anesthetized with 2% isoflurane and the left carotid artery and jugular vein cannulated after an overnite fast. Fasting blood glucose was assessed as the initial two measurements in the anesthetized mice. A second measurement was used to determine HbA1c levels using the […] kit from Metrika Inc. A 10 mg bolus of glucose was injected into each mouse and blood glucose measure by a drop of blood from the carotid line every 5 minutes for 40 minutes. Glucose was measured with a Precision XL glucometer. At the end of the experiment mice were euthanized by isoflurane overdose. In a second group of mice, fasted mice were anesthetized by isofluorance in a rapid induction chamber and swiftly decapitated. Trunk blood was collected in heparin and rapidly centrifuged to remove blood cells and obtain plasma. Samples were then collected for analyses. Plasma cholesterol, free fatty acids and triglycerides were determined using colorimetric assays from Wako Chemical while plasma TNFα concentration was determined using ELISA assay kits from eBioscience.

[4] = difference between genotypes under treatment
[5] = obese mice, antagonist given with α7 agonist

Compound | Glucose Tolerance Test (GTT) (db/db mice [2]) | plasma TNFα (db/db mice [2]) | plasma blood glucose (BG) (db/db mice [2]) | plasma glycosylated hemoglobin (Hb1ac) (db/db mice [2]) | plasma triglycerides (TG) (db/db mice [2]) | body mass (db/db mice [2]) | food consumption (db/db mice [2]) | weight gain (db/db mice [2]) | food intake decrease induced by the α7 agonist (db/db mice [2]; obese mice) | treatment-induced decrease in plasma glucose (db/db mice [2]; obese mice) | body weight gain / weight loss induced by the α7 agonist (db/db mice [2]; obese mice) | also measured
O=C(N[C@@H]1C2CCN(CC2)[C@H]1Cc1cccnc1)c1cc2ccccc2o1 (single isomer, unassigned) [Compound C] | normalize insulin resistance glucose tolerance test; also recorded: significant increase in deposition | reduce pro-inflammatory cytokines; also recorded: significantly inhibited | normalize glucose levels; also recorded: significantly inhibited | decrease glycated hemoglobin; also recorded: significantly inhibited | reduce triglycerides; also recorded: significantly inhibited | significantly inhibited | significantly inhibited | reduce weight gain | – | – | – | Emax [1]: > 50%; body mass, fat wild type vs fat PTP-1B KO (db/db mice [2]; [4]): no significant difference; food consumption, fat wild type vs fat PTP-1B KO (db/db mice [2]; [4]): no significant difference; plasma blood glucose, fat wild type vs fat PTP-1B KO (db/db mice [2]; [4]): no significant difference
N#C/C(=C/c1ccc(O)c(O)c1)C(=O)NCc1ccccc1 [AG-490, reference compound] | – | – | – | – | – | – | – | – | significantly inhibited; also recorded: partially inhibits effects of Compound A | significantly prevented | significantly inhibited | –
Cc1ccc(C(=O)N[C@@H]2C3CCN(CC3)[C@H]2Cc2cccnc2)s1 [Compound A, 5-methyl-N-[(2S,3R)-2-(pyridin-3-ylmethyl)-1-azabicyclo[2.2.2]oct-3-yl]thiophene-2-carboxamide] | normalize insulin resistance glucose tolerance test | reduce pro-inflammatory cytokines | normalize glucose levels | decrease glycated hemoglobin | reduce triglycerides | – | – | reduce weight gain | – | – | – | % glycated hemoglobin (% Hb1ac) (db/db mice [3]): significantly inhibited; body mass (db/db mice [3]): significantly inhibited; food consumption (db/db mice [3]): significantly inhibited; plasma TNFα (db/db mice [3]): significantly inhibited; plasma blood glucose (BG) (db/db mice [3]): significantly inhibited; plasma cholesterol (Chol) (db/db mice [3]): significantly inhibited; plasma triglycerides (TG) (db/db mice [3]): significantly inhibited
O=C(N[C@@H]1C2CCN(CC2)[C@H]1Cc1cccnc1)c1ccc(-c2ccccn2)s1 [Compound B, (2S,3R)—N-(2-((3-pyridinyl)methyl)-1-azabicyclo[2.2.2]oct-3-yl)-5-(2-pyridinyl)thiophene-2-carboxamide] | normalize insulin resistance glucose tolerance test | reduce pro-inflammatory cytokines; also recorded: significantly inhibited | normalize glucose levels; also recorded: significantly inhibited | decrease glycated hemoglobin; also recorded: significantly inhibited | reduce triglycerides; also recorded: significantly inhibited | significantly inhibited | significantly inhibited | reduce weight gain | – | – | – | –
CCN1C[C@]2(COC(=O)c3ccccc3N3C(=O)C[C@H](C)C3=O)CC[C@H](OC)[C@@]34[C@@H]5C[C@H]6[C@H](OC)[C@@H]5[C@](O)(C[C@@H]6OC)[C@](O)([C@@H](OC)[C@H]23)[C@@H]14 [MLA, reference compound] | – | – | – | – | – | – | – | – | no significant differences | no significant decrease in plasma glucose | no significant differences | decrease of plasma TNF-α by the α7 agonist (db/db mice [2]; [5]): blocked; increased insulin sensitivity induced by the α7 agonist (db/db mice [2]; [5]): abrogated; also recorded: suppressed; normalization of triglycerides by the α7 agonist (db/db mice [2]; [5]): blocked
